Measurements from ChEMBL document CHEMBL1201862, “PubChem BioAssay data set” (2004).
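Step 1: Grow cells in 96-well plates. Step 2: Expose to compound for 48 hours at 5 concentrations. Step 3: Interpolate endpoints linearly; if unreached, use highest concentration. The concentration for 50% growth inhibition is given as GI50.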 Active and inactive are the calls of the source. Rule as the data show it: active = GI50 up to about 1.1 µM and inactive = higher.

Columns and labels:
Assay in all cases: inhibition of tumour cell growth, NCI panel, 48 h
A498 = test system: A498
DU-145 = test system: DU-145
HCT-116 = test system: HCT-116
K562 = test system: K562
KM12 = test system: KM12
M14 = test system: M14
NCI-H23 = test system: NCI-H23
NCI-H460 = test system: NCI-H460
OVCAR-3 = test system: OVCAR-3
OVCAR-8 = test system: OVCAR-8
RPMI-8226 = test system: RPMI-8226
RXF 393 = test system: RXF 393
SF-268 = test system: SF-268
SR = test system: SR
SW-620 = test system: SW-620
T47D = test system: T47D
TK-10 = test system: TK-10
UO-31 = test system: UO-31
EKVX = test system: EKVX
HOP-92 = test system: HOP-92

CC1(C)C2CCC(=O)C1C(OCc1ccccc1)C2 (stereo not drawn)
GI50 (A498): > 100 µM (inactive)
GI50 (DU-145): > 100 µM (inactive)
GI50 (HCT-116): > 100 µM (inactive)
GI50 (K562): 96.4 µM (inactive)
GI50 (KM12): > 100 µM (inactive)
GI50 (M14): > 100 µM (inactive)
GI50 (NCI-H23): > 100 µM (inactive)
GI50 (NCI-H460): > 100 µM (inactive)
GI50 (OVCAR-3): > 100 µM (inactive)
GI50 (OVCAR-8): > 100 µM (inactive)
GI50 (RPMI-8226): > 100 µM (inactive)
GI50 (RXF 393): > 100 µM (inactive)
GI50 (SF-268): > 100 µM (inactive)
GI50 (SR): 29.8 µM (inactive)
GI50 (SW-620): > 100 µM (inactive)
GI50 (T47D): > 100 µM (inactive)
GI50 (TK-10): > 100 µM (inactive)
GI50 (UO-31): > 100 µM (inactive)

CCSC12OC3(CCCCCN3C1=O)C1C(=O)N(c3ccccc3)C(=O)C12 (stereo not drawn)
GI50 (A498): > 100 µM (inactive)
GI50 (DU-145): > 100 µM (inactive)
GI50 (EKVX): > 100 µM (inactive)
GI50 (HCT-116): > 100 µM (inactive)
GI50 (HOP-92): > 100 µM (inactive)
GI50 (K562): > 100 µM (inactive)
GI50 (KM12): > 100 µM (inactive)
GI50 (M14): > 100 µM (inactive)
GI50 (NCI-H23): > 100 µM (inactive)
GI50 (NCI-H460): > 100 µM (inactive)
GI50 (OVCAR-3): > 100 µM (inactive)
GI50 (OVCAR-8): > 100 µM (inactive)
GI50 (RXF 393): > 100 µM (inactive)
GI50 (SF-268): > 100 µM (inactive)
GI50 (SR): > 100 µM (inactive)
GI50 (SW-620): > 100 µM (inactive)
GI50 (T47D): > 100 µM (inactive)
GI50 (TK-10): > 100 µM (inactive)
GI50 (UO-31): > 100 µM (inactive)

O=C1c2scc(-c3ccc(F)cc3)c2-n2cccc21
GI50 (A498): 1.47 µM (inactive)
GI50 (DU-145): 88.1 µM (inactive)
GI50 (EKVX): 24.4 µM (inactive)
GI50 (HCT-116): 18.2 µM (inactive)
GI50 (KM12): 43 µM (inactive)
GI50 (M14): 29.5 µM (inactive)
GI50 (NCI-H460): 28 µM (inactive)
GI50 (OVCAR-3): 54.1 µM (inactive)
GI50 (OVCAR-8): 57.7 µM (inactive)
GI50 (RPMI-8226): 24.5 µM (inactive)
GI50 (RXF 393): 26.1 µM (inactive)
GI50 (SF-268): 36.4 µM (inactive)
GI50 (SR): 11 µM (inactive)
GI50 (SW-620): 27.4 µM (inactive)
GI50 (T47D): 13.6 µM (inactive)
GI50 (TK-10): 45.3 µM (inactive)
GI50 (UO-31): 8.99 µM (inactive)

CC(=O)OC(=C(C#N)C#N)c1nccnc1C(C)=O
GI50 (A498): > 20 µM (inactive)
GI50 (DU-145): > 20 µM (inactive)
GI50 (EKVX): > 20 µM (inactive)
GI50 (HOP-92): > 20 µM (inactive)
GI50 (K562): 11 µM (inactive)
GI50 (KM12): 4.98 µM (inactive)
GI50 (M14): 4.8 µM (inactive)
GI50 (NCI-H23): > 20 µM (inactive)
GI50 (NCI-H460): 7.83 µM (inactive)
GI50 (OVCAR-3): 14.6 µM (inactive)
GI50 (OVCAR-8): > 20 µM (inactive)
GI50 (RXF 393): 5.77 µM (inactive)
GI50 (SF-268): 3.59 µM (inactive)
GI50 (SR): 18.5 µM (inactive)
GI50 (SW-620): > 20 µM (inactive)
GI50 (T47D): > 20 µM (inactive)
GI50 (UO-31): > 20 µM (inactive)

CCOC(=O)CSc1[nH]c2nc(C)nc(Cl)c2c1C#N
GI50 (DU-145): > 10 µM (inactive)
GI50 (EKVX): > 10 µM (inactive)
GI50 (HOP-92): > 10 µM (inactive)
GI50 (K562): > 10 µM (inactive)
GI50 (KM12): > 10 µM (inactive)
GI50 (M14): > 10 µM (inactive)
GI50 (NCI-H23): > 10 µM (inactive)
GI50 (OVCAR-8): > 10 µM (inactive)
GI50 (RPMI-8226): > 10 µM (inactive)
GI50 (RXF 393): > 10 µM (inactive)
GI50 (SF-268): > 10 µM (inactive)
GI50 (SR): > 10 µM (inactive)
GI50 (SW-620): > 10 µM (inactive)
GI50 (T47D): > 10 µM (inactive)
GI50 (TK-10): > 10 µM (inactive)

COc1cc(/C=C/c2ccnc3ccccc23)cc(OC)c1OC
GI50 (A498): 4 µM (inactive)
GI50 (DU-145): 4.84 µM (inactive)
GI50 (EKVX): 8.87 µM (inactive)
GI50 (HCT-116): 1.82 µM (inactive)
GI50 (KM12): 3.23 µM (inactive)
GI50 (M14): 3.63 µM (inactive)
GI50 (NCI-H23): 1.66 µM (inactive)
GI50 (NCI-H460): 3.77 µM (inactive)
GI50 (OVCAR-3): 3.3 µM (inactive)
GI50 (RPMI-8226): 3.72 µM (inactive)
GI50 (RXF 393): 1.63 µM (inactive)
GI50 (SF-268): 3.39 µM (inactive)
GI50 (SR): 1.35 µM (inactive)
GI50 (SW-620): 4.93 µM (inactive)
GI50 (T47D): 3.81 µM (inactive)
GI50 (TK-10): 5.37 µM (inactive)
GI50 (UO-31): 0.132 µM (active)
